Laboratory results taken from PubChem BioAssay (NCI).
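Abbreviation: GI50, concentration required for 50% inhibition of growth. TGI: concentration producing complete growth inhibition.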

Experiments:
Test in all cases: growth of human tumour cells (NCI), 384-well format
HCC-2998 colon = tested on: HCC-2998 colon
NCI-H322M lung = tested on: NCI-H322M lung
SR leukemia = tested on: SR leukemia
A498 renal = tested on: A498 renal
DU-145 prostate = tested on: DU-145 prostate
786-0 renal = tested on: 786-0 renal
SN12C renal = tested on: SN12C renal
SK-MEL-5 melanoma = tested on: SK-MEL-5 melanoma
RXF 393 renal = tested on: RXF 393 renal
RPMI-8226 leukemia = tested on: RPMI-8226 leukemia
SNB-19 CNS = tested on: SNB-19 CNS
A549 NSCLC = tested on: A549 NSCLC
ACHN renal = tested on: ACHN renal
SF-268 CNS = tested on: SF-268 CNS
BT-549 breast = tested on: BT-549 breast
IGROV1 ovarian = tested on: IGROV1 ovarian
NCI-H23 lung = tested on: NCI-H23 lung
MOLT-4 leukemia = tested on: MOLT-4 leukemia
NCI/ADR-RES ovarian = tested on: NCI/ADR-RES ovarian
HT29 colon = tested on: HT29 colon
OVCAR-4 ovarian = tested on: OVCAR-4 ovarian
SK-MEL-2 melanoma = tested on: SK-MEL-2 melanoma
M14 melanoma = tested on: M14 melanoma
HOP-92 NSCLC = tested on: HOP-92 NSCLC
NCI-H522 lung = tested on: NCI-H522 lung
SK-OV-3 ovarian = tested on: SK-OV-3 ovarian
HCT-116 colon = tested on: HCT-116 colon
OVCAR-8 ovarian = tested on: OVCAR-8 ovarian
MCF7 breast = tested on: MCF7 breast
MDA-MB-468 breast = tested on: MDA-MB-468 breast
SK-MEL-28 melanoma = tested on: SK-MEL-28 melanoma
HOP-62 NSCLC = tested on: HOP-62 NSCLC
OVCAR-5 ovarian = tested on: OVCAR-5 ovarian
U251 glioblastoma = tested on: U251 glioblastoma
MDA-MB-231 breast = tested on: MDA-MB-231 breast
SW-620 colon = tested on: SW-620 colon
NCI-H460 NSCLC = tested on: NCI-H460 NSCLC
SF-539 CNS = tested on: SF-539 CNS
UACC-257 melanoma = tested on: UACC-257 melanoma
T-47D breast = tested on: T-47D breast
PC-3 prostate = tested on: PC-3 prostate
COLO 205 colon = tested on: COLO 205 colon
TK-10 renal = tested on: TK-10 renal
LOX IMVI melanoma = tested on: LOX IMVI melanoma
MDA-MB-435 melanoma = tested on: MDA-MB-435 melanoma
UO-31 renal = tested on: UO-31 renal
OVCAR-3 ovarian = tested on: OVCAR-3 ovarian

C[C@H](NC(=O)c1c(C(F)F)nn(C)c1Oc1cccc(C(F)(F)F)c1)c1ccc(C(=O)O)cc1
GI50 (HCC-2998 colon): > 100 µM | TGI (HCC-2998 colon): > 100 µM | GI50 (NCI-H322M lung): > 100 µM | TGI (NCI-H322M lung): > 100 µM | GI50 (SR leukemia): > 100 µM | TGI (SR leukemia): > 100 µM | GI50 (A498 renal): > 100 µM | TGI (A498 renal): > 100 µM | GI50 (DU-145 prostate): > 100 µM | TGI (DU-145 prostate): > 100 µM | GI50 (786-0 renal): > 100 µM | TGI (786-0 renal): > 100 µM | GI50 (SN12C renal): > 100 µM | TGI (SN12C renal): > 100 µM | GI50 (SK-MEL-5 melanoma): > 100 µM | TGI (SK-MEL-5 melanoma): > 100 µM | GI50 (RXF 393 renal): > 100 µM | TGI (RXF 393 renal): > 100 µM | GI50 (RPMI-8226 leukemia): > 61.1 µM | TGI (RPMI-8226 leukemia): > 100 µM | GI50 (SNB-19 CNS): > 100 µM | TGI (SNB-19 CNS): > 100 µM | GI50 (A549 NSCLC): > 100 µM | TGI (A549 NSCLC): > 100 µM | GI50 (ACHN renal): > 100 µM | TGI (ACHN renal): > 100 µM | GI50 (SF-268 CNS): > 100 µM | TGI (SF-268 CNS): > 100 µM | GI50 (BT-549 breast): > 100 µM | TGI (BT-549 breast): > 100 µM | GI50 (IGROV1 ovarian): > 100 µM | TGI (IGROV1 ovarian): > 100 µM | GI50 (NCI-H23 lung): > 100 µM | TGI (NCI-H23 lung): > 100 µM | GI50 (MOLT-4 leukemia): > 100 µM | TGI (MOLT-4 leukemia): > 100 µM | GI50 (NCI/ADR-RES ovarian): > 100 µM | TGI (NCI/ADR-RES ovarian): > 100 µM | GI50 (HT29 colon): > 100 µM | TGI (HT29 colon): > 100 µM | GI50 (OVCAR-4 ovarian): > 100 µM | TGI (OVCAR-4 ovarian): > 100 µM | GI50 (SK-MEL-2 melanoma): > 100 µM | TGI (SK-MEL-2 melanoma): > 100 µM | GI50 (M14 melanoma): > 100 µM | TGI (M14 melanoma): > 100 µM | GI50 (HOP-92 NSCLC): > 100 µM | TGI (HOP-92 NSCLC): > 100 µM | GI50 (NCI-H522 lung): > 100 µM | TGI (NCI-H522 lung): > 100 µM | GI50 (SK-OV-3 ovarian): > 100 µM | TGI (SK-OV-3 ovarian): > 100 µM | GI50 (HCT-116 colon): > 100 µM | TGI (HCT-116 colon): > 100 µM | GI50 (OVCAR-8 ovarian): > 100 µM | TGI (OVCAR-8 ovarian): > 100 µM | GI50 (MCF7 breast): > 100 µM | TGI (MCF7 breast): > 100 µM | GI50 (MDA-MB-468 breast): > 100 µM | TGI (MDA-MB-468 breast): > 100 µM | GI50 (SK-MEL-28 melanoma): > 100 µM | TGI (SK-MEL-28 melanoma): > 100 µM | GI50 (HOP-62 NSCLC): > 100 µM | TGI (HOP-62 NSCLC): > 100 µM | GI50 (OVCAR-5 ovarian): > 100 µM | TGI (OVCAR-5 ovarian): > 100 µM | GI50 (U251 glioblastoma): > 100 µM | TGI (U251 glioblastoma): > 100 µM | GI50 (MDA-MB-231 breast): > 100 µM | TGI (MDA-MB-231 breast): > 100 µM | GI50 (SW-620 colon): > 100 µM | TGI (SW-620 colon): > 100 µM | GI50 (NCI-H460 NSCLC): > 100 µM | TGI (NCI-H460 NSCLC): > 100 µM | GI50 (SF-539 CNS): > 100 µM | TGI (SF-539 CNS): > 100 µM | GI50 (UACC-257 melanoma): > 100 µM | TGI (UACC-257 melanoma): > 100 µM | GI50 (T-47D breast): > 100 µM | TGI (T-47D breast): > 100 µM | GI50 (PC-3 prostate): > 100 µM | TGI (PC-3 prostate): > 100 µM | GI50 (COLO 205 colon): > 100 µM | TGI (COLO 205 colon): > 100 µM | GI50 (TK-10 renal): > 100 µM | TGI (TK-10 renal): > 100 µM | GI50 (LOX IMVI melanoma): > 100 µM | TGI (LOX IMVI melanoma): > 100 µM | GI50 (MDA-MB-435 melanoma): > 100 µM | TGI (MDA-MB-435 melanoma): > 100 µM | GI50 (UO-31 renal): > 100 µM | TGI (UO-31 renal): > 100 µM | GI50 (OVCAR-3 ovarian): > 100 µM | TGI (OVCAR-3 ovarian): > 100 µM
